Patent US10087148B2, “Quinazolines as biogenic amine transport modulators” (THE UNITED STATES OF AMERICA AS REPRESENTED BY THE …, priority 2014, dated 2018)
Read-outs that look alike come from different tables or passages of the source.

Key:
[1] = molecular target: T1, dopamine transporter (DAT) (Rattus norvegicus (Rat), UniProt P23977); test: [3H]dopamine (DA) uptake inhibition in rat brain (caudate) synaptosomes; assay type: biochemical
[2] = molecular target: serotonin transporter (SERT) (Rattus norvegicus (Rat), UniProt P31652); test: [3H]serotonin (5-HT) uptake inhibition in rat brain synaptosomes; assay type: biochemical; conditions: for Emax: read-out: SERT Uptake Emax
Procedure: Uptake inhibition assay for the serotonin transporter was conducted in rat brain synaptosomes as described elsewhere with minor modifications (Rothman et al., Synapse 39, 32-41 (2001)). Freshly removed whole brain minus cerebellum and caudate was homogenized in 10% ice-cold sucrose with 12 strokes of a hand-held Potter-Elvehjem homogenizer followed by centrifugation at 1000×g for 10 min. The supernatants were saved on ice and used immediately. Transporter activity at SERT was assessed using 5 nM [^3H]serotonin. The assay buffer was Krebs-phosphate buffer containing 154.4 mM NaCl, 2.9 mM KCl, 1.1 mM CaCl2, 0.83 mM MgCl2, 5 mM glucose, 1 mg/mL ascorbic acid, and 50 μM pargyline. […] Uptake inhibition assays were conducted at 25° C. and were initiated by adding 100 μL of tissue to 900 μL assay buffer containing test drug and [^3H]serotonin. Test drugs were diluted in assay buffer containing 1 mg/mL bovine serum albumin. Nonspecific uptake was measured by incubating in the presence of 10 μM indatraline. The reactions were stopped after 30 min by rapid vacuum filtration with a cell harvester (BRANDEL) over GF/B filters (Whatman) presoaked in wash buffer maintained at 25° C. (10 mM Tris-HCl, pH 7.4/150 mM NaCl). Filters were rinsed with 6 mL wash buffer and retained tritium was quantified by a MicroBeta liquid scintillation counter (PerkinElmer) after overnight extraction in 0.6 mL of liquid scintillation cocktail (Cytoscint, ICN). The data from three experiments were pooled and fit to a dose-response curve equation (using Kaleidagraph), to yield an Emax and EC50 value.

[3] = molecular target: norepinephrine transporter (NET) (Rattus norvegicus, UniProt Q63380); test: [3H]norepinephrine (NE) uptake inhibition in rat brain synaptosomes; assay type: biochemical; conditions: for Emax: read-out: NET Uptake Emax; for IC50: read-out: NET Uptake IC50, mean ± S.D., n = 3
Procedure: Uptake inhibition assay for the norepinephrine transporter was conducted in rat brain synaptosomes as described elsewhere with minor modifications (Rothman et al., Synapse 39, 32-41 (2001)). Freshly removed whole brain minus cerebellum and caudate was homogenized in 10% ice-cold sucrose with 12 strokes of a hand-held Potter-Elvehjem homogenizer followed by centrifugation at 1000×g for 10 minutes. The supernatants were saved on ice and used immediately. Transporter activity at NET was assessed using 10 nM [^3H]norepinephrine. The assay buffer was Krebs-phosphate buffer containing 154.4 mM NaCl, 2.9 mM KCl, 1.1 mM CaCl2, 0.83 mM MgCl2, 5 mM glucose, 1 mg/mL ascorbic acid, and 50 μM pargyline. […] Uptake inhibition assays were conducted at 37° C. and were initiated by adding 100 μL of tissue to 900 μL assay buffer containing test drug and [^3H]norepinephrine. Test drugs were diluted in assay buffer containing 1 mg/mL bovine serum albumin. Nonspecific uptake was measured by incubating in the presence of 10 μM indatraline. The reactions were stopped after 10 minutes by rapid vacuum filtration with a cell harvester (BRANDEL) over GF/B filters (Whatman) presoaked in wash buffer maintained at 25° C. (10 mM Tris-HCl, pH 7.4/150 mM NaCl). Filters were rinsed with 6 mL wash buffer and retained tritium was quantified by a MicroBeta liquid scintillation counter (PerkinElmer) after overnight extraction in 0.6 mL of liquid scintillation cocktail (Cytoscint, ICN). The data from three experiments were pooled and fit to a dose-response curve equation (using Kaleidagraph), to yield an Emax and EC50 value.

[4] = molecular target: T1, dopamine transporter (DAT); test: Dopamine transporter-mediated [3H]MPP+ release (d-amphetamine-induced, shift experiments) in rat caudate synaptosomes; assay type: biochemical; conditions: for Emax: read-out: d-Amphetamine Emax in presence of blocker; for Apparent Kc: [Blocker]/((EC50-2/EC50-1) − 1)
DAT [5] = molecular target: T2, DAT (Rattus norvegicus (Rat), UniProt P23977); test: Inhibition of [3H]WIN35428 binding to rat caudate DAT; conditions: for Emax / IC50 / DAT Binding Emax / DAT Binding IC50: [3H]WIN35428, mean ± S.D., n = 3; for IC50 / DAT Binding IC50: unit as printed in head (text gives 1100 nM where table prints 1.1)
Procedure: All of the test compounds were synthesized as described herein. […] The data from three experiments were pooled and fit to a dose-response curve equation (using KaleidaGraph; Synergy Software, Reading, Pa.) to yield an Emax and IC50 value. […] Selected compounds were also tested for their ability to inhibit [^3H]WIN35428 binding to rat caudate DAT.

DAT [6] = molecular target: T2, DAT; test: d-amphetamine-induced, DAT-mediated [3H]DA release (shift experiments); assay type: biochemical
[7] = mean ± S.D., n = 3, read-out: DAT Uptake Emax
[8] = values in Table 9, read-out: Emax for DAT Uptake Inhibition
[9] = [3H]MPP+ release, blocker concentration per row, mean ± S.D., n = 3

serotonin transporter (SERT), sequence (P31652 whole entry): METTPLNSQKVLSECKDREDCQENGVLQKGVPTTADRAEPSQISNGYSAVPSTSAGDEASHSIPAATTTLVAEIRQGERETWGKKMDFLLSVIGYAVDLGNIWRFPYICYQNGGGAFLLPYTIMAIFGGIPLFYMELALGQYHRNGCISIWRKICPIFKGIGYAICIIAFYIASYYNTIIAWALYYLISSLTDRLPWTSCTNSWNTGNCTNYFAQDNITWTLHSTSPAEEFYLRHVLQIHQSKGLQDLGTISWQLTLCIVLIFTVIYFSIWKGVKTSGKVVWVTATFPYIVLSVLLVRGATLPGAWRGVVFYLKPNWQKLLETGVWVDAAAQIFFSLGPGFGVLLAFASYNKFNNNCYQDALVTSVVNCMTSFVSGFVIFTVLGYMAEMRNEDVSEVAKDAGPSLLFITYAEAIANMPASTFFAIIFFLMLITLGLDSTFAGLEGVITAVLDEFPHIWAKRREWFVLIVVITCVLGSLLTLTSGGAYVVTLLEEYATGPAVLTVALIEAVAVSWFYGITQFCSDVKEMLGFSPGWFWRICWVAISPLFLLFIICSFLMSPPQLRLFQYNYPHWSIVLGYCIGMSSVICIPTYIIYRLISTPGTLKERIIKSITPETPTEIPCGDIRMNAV
norepinephrine transporter (NET), sequence (Q63380 1-617): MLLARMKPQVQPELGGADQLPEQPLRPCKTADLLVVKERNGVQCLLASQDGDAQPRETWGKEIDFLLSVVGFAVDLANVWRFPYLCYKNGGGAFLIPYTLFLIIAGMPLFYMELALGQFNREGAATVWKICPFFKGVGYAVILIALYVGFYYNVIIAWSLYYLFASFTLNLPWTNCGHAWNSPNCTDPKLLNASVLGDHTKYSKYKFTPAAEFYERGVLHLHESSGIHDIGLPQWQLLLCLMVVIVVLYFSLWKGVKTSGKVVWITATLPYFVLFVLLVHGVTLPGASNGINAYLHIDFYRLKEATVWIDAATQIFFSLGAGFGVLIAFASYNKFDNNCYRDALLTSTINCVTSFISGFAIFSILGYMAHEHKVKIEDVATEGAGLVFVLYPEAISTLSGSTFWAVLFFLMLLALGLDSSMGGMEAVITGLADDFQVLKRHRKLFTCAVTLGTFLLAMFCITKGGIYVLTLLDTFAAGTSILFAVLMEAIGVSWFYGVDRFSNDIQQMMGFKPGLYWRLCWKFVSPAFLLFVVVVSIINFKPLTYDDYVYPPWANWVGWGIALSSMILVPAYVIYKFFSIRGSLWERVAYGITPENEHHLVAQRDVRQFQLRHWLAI
T2 sequence (P23977 whole entry): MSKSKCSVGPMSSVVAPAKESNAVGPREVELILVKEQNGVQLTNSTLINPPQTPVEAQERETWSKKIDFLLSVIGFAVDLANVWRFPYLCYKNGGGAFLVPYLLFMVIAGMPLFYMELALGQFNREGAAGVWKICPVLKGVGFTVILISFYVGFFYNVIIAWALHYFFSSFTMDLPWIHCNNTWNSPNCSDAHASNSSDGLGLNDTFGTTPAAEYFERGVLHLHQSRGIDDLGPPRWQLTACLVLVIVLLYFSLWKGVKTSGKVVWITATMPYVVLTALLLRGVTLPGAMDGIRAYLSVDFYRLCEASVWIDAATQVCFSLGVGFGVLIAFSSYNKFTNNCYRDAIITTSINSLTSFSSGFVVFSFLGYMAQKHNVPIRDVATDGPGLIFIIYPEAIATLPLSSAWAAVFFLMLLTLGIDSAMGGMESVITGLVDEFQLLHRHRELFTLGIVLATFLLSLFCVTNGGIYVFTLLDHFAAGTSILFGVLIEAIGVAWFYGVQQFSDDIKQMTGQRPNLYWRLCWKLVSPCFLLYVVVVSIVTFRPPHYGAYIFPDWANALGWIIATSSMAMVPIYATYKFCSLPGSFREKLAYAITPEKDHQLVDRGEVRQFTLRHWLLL
T1 sequence (P23977 whole entry): as above

SMILES | Emax [1, 7] | Emax [1, 8] | Emax ([2]; mean ± S.D., n = 3) | Emax [3] | IC50 [3] | Emax [4, 9] | Emax (DAT [5]) | DAT binding IC50 weaker than IC50 for inhibition of DAT uptake (DAT [5]; binding IC50 / uptake IC50) | IC50 ([1]; mean ± S.D., n = 3) | IC50 ([2]; mean ± S.D., n = 3) | Apparent Kc ([4]; [3H]MPP+ release) | IC50 (DAT [5]) | Apparent Kc (DAT [6]; [Blocker]/((EC50-2/EC50-1) − 1)) | Emax (DAT [6]; read-out: d-Amphetamine Emax in presence of blocker, blocker concentration per row, mean ± S.D., n = 3) | DAT Binding Emax (DAT [5]) | DAT Binding IC50 (DAT [5]) | Emax ([1]; read-out: DAT Uptake Emax) | Emax ([1]; read-out: Emax for DAT Uptake Inhibition) | Emax [2] | Emax [4]
CN(C)c1ccc(-c2nc(NCC(c3ccccc3)c3ccccc3)c3ccccc3n2)cc1 [Compound 51, 2-(4-(dimethylamino)phenyl)-N-(2,2-diphenylethyl)quinazolin-4-amine] | 70 ± 3% | 70% | 44 ± 4% | 68 ± 7% | 143 ± 61 nM | 101 ± 2% | 100 ± 3% | 155 fold |  |  |  |  |  |  |  |  |  |  |  | 
c1ccc(C(CCNc2nc(-c3cccnc3)nc3ccccc23)c2ccccc2)cc1 [SRI-29070] | 66 ± 4% | 66% | 48 ± 3% | 64 ± 10% | 1740 ± 1150 nM | 98 ± 1% | 71 ± 4% |  | 174 ± 58 nM | 699 ± 164 nM | 7050 nM | 1800 ± 400 nM |  |  |  |  |  |  |  | 
c1ccc(C(CNc2nc(-c3cccnc3)nc3ccccc23)c2ccccc2)cc1 [SRI-29072] | 71 ± 3% | 71% | 56 ± 9% | 62 ± 5% | 5850 ± 1750 nM | 96 ± 3% | 77 ± 2% |  | 212 ± 49 nM | 6380 ± 2640 nM | 25830 nM | 2700 ± 300 nM |  |  |  |  |  |  |  | 
CN(C)c1ncc(-c2nc(NCC(c3ccccc3)c3ccccc3)c3ccccc3n2)cn1 [SRI-29153] | 73 ± 1% | 73% | 55 ± 5% | 73 ± 4% | 181 ± 46 nM | 101 ± 3% | 76 ± 2% |  |  |  | 1820 nM | 1700 ± 200 nM |  |  |  |  |  |  |  | 
c1ccc(C(CNc2nc(-c3ccc4[nH]ccc4c3)nc3ccccc23)c2ccccc2)cc1 [SRI-29155] | 74 ± 1% | 74% | 54 ± 2% | 70 ± 3% | 290 ± 52 nM | 94 ± 2% | 87 ± 4% |  |  |  | 456 nM | 900 ± 200 nM |  |  |  |  |  |  |  | 
CN(C)c1ncc(-c2nc(NCCC(c3ccccc3)c3ccccc3)c3ccccc3n2)cn1 [SRI-29212] | 67 ± 4% | 67% | 50 ± 7% | 64 ± 5% | 8130 ± 2270 nM | 103 ± 2% | 72 ± 4% |  | 672 ± 204 nM | 3800 ± 1640 nM | 64580 nM | 2200 ± 500 nM |  |  |  |  |  |  |  | 
c1ccc(C(CCNc2nc(-c3ccc4[nH]ccc4c3)nc3ccccc23)c2ccccc2)cc1 [SRI-29213] | 81 ± 3% | 81% | 43 ± 4% | 77 ± 3% | 346 ± 59 nM | 78 ± 2% | 94 ± 2% |  | 16 ± 4 nM | 89 ± 51 nM | 886 nM | 200 nM | 6.7 µM | 71 ± 3% |  |  |  |  |  | 
CN(C)c1ccc(-c2nc(NCC(c3ccccc3)c3ccccc3)c3ccccc3n2)cn1 [SRI-29779] | 63 ± 3% | 63% | 51 ± 2% | 71 ± 6% | 147 ± 63 nM | 99 ± 2% | 83 ± 3% |  |  |  | 912 nM | 1200 ± 200 nM |  |  |  |  |  |  |  | 
c1ccc(C(CNc2nc(-c3cnc4nccn4c3)nc3ccccc23)c2ccccc2)cc1 [SRI-29991] | 68 ± 1% | 68% | 51 ± 1% | 69 ± 2% | 63 ± 9 nM | 102 ± 2% | 18 ± 4% |  |  |  | -1070 nM | 1220 ± 1120 nM |  |  |  |  |  |  |  | 
c1ccc(C(CNc2nc(-c3cnc4nccn4c3)nc3ccccc23)C2CCCCC2)cc1 (centres unmarked) [SRI-30517] | 70 ± 1% | 70% | 54 ± 1% | 70 ± 2% | 95 ± 12 nM | 104 ± 4% | 43 ± 4% |  |  |  | 1600 nM | 160 ± 80 nM |  |  |  |  |  |  |  | 
c1ccc(C(CNc2nc(-c3ccc4ncnn4c3)nc3ccccc23)c2ccccc2)cc1 [SRI-30522] | 63 ± 1% | 63% | 35 ± 3% | 40 ± 5% | 86 ± 55 nM | 105 ± 4% |  |  |  |  |  |  |  |  | Inactive | Inactive |  |  |  | 
c1ccc(C(CNc2nc(-c3cnc4nccn4c3)nc3ccccc23)c2ccncc2)cc1 (centres unmarked) [SRI-30810] | 64 ± 1% | 64% | 51 ± 2% | 69 ± 2% | 60 ± 10 nM | 104 ± 5% | 25 ± 2% |  |  |  | 1200 nM | 820 ± 360 nM |  |  |  |  |  |  |  | 
c1ccc(C(CNc2nc(-c3ccc4nccn4c3)nc3ccccc23)c2ccc[nH]2)cc1 (centres unmarked) [SRI-30826] | 64 ± 2% | 64% | 56 ± 2% | 81 ± 2% | 88 ± 15 nM | 105 ± 4% | 42 ± 3% |  |  |  | 1600 nM | 1280 ± 400 nM |  |  |  |  |  |  |  | 
Cc1cc2nccn2cc1-c1nc(NCC(c2ccccc2)c2ccccc2)c2ccccc2n1 [SRI-30827] | 63 ± 2% | 63% | 58 ± 3% | 67 ± 3% | 21 ± 7 nM | 104 ± 3% | 79 ± 3% |  |  |  | 267 nM | 1990 ± 330 nM |  |  |  |  |  |  |  | 
Cl.Fc1ccc2c(NCC(c3ccccc3)c3ccccc3)nc(-c3ccc4nccn4c3)nc2c1 [SRI-31034] |  |  |  | 63 ± 3% | 94 ± 22 nM |  |  |  |  |  | 3200 nM |  |  |  | Inactive | Inactive | 69 ± 1% | 69% | 49 ± 2% | 104 ± 5%
Cc1cc2nccn2cc1-c1nc(NCC(c2ccccc2)c2ccc[nH]2)c2ccccc2n1 (centres unmarked) [SRI-31040] | 69 ± 1% | 69% | 54 ± 2% | 70 ± 4% | 11 ± 4 nM | 105 ± 3% | 91 ± 7% |  |  |  | 55 nM | 3740 ± 1100 nM |  |  |  |  |  |  |  | 
Cc1cc2nccn2cc1-c1nc(NCC(c2ccccc2)c2ccncc2)c2ccccc2n1 (centres unmarked) [SRI-31142] | 72 ± 2% | 72% | 48 ± 1% | 61 ± 2% | 17 ± 4 nM | 103 ± 3% | 92 ± 4% |  |  |  | 400 nM | 2340 ± 450 nM |  |  |  |  |  |  |  | 
Cc1cc2nccn2cc1-c1nc(NCC(O)(c2ccccc2)c2ccccc2)c2ccccc2n1 [SRI-31143] | 69 ± 1% | 67% | 51 ± 2% | 69 ± 4% | 16 ± 5 nM | 104 ± 4% | 52 ± 8% |  |  |  | 46 nM | 3390 ± 1990 nM |  |  |  |  |  |  |  | 
